From publication PMC6709486, “Safety, Tolerability, Pharmacokinetics, and Drug Interaction Potential of SPR741, an Intravenous Potentiator, after Single and Multiple Ascending Doses and When Combined with β-Lactam Antibiotics in Healthy Subjects” (Antimicrobial Agents and Chemotherapy, 2019)
Peptide text beside a SMILES is read from it.

Key:
clinical [1] = conditions: human, in vivo, iv
From the text: The SAD/MAD study was a phase 1, double-blind, placebo-controlled, multicohort trial. Part 1 used a SAD design according to which subjects received a single i.v. dose of SPR741. Part 2 used a MAD design in which subjects received multiple daily i.v. doses of SPR741 over a period of 14 days. The objective was to assess the safety/tolerability and PK of single and multiple ascending doses of SPR741. In the SAD phase, healthy volunteers were screened within 28 days prior to dosing. Subjects were admitted to the clinical facility on day −1 for up to 3 days. A single dose of SPR741 (or placebo) was administered on day 1. Following completion of all safety assessments and sampling for PK analyses, subjects were discharged on day 2. A follow-up visit occurred 5 to 7 days after day 1 dosing. In the MAD phase, all subjects were admitted to the clinical facility on day −1. Dosing commenced on the morning of day 1. Three doses were administered daily at approximately 8 (±0.5)-h intervals for a total of 14 consecutive days. The last dose was administered on the morning of day 14. Blood and urine samples were collected for assessment of PK parameters. Subjects were discharged on day 16 following completion of all PK sample collection and safety assessments, and a follow-up visit occurred 5 to 7 days after the last dose. The MAD phase of the study began after safety and tolerability were confirmed in cohort 5, and the appropriate dose level was established. Two subjects received placebo, and six subjects received SPR741 doses of 50, 150, 400 or 600 mg q8h for 14 days. In the first cohort of the MAD phase (50 mg q8h), two subjects (sentinels) began dosing with SPR741 or placebo 72 h prior to dosing of the remaining subjects in this cohort. The remaining six subjects were dosed only after no safety concerns were identified by the Safety Monitoring Group at 72 h. […]

clinical [2] = assay: clinical; design: species or system human; conditions: in vivo, iv
From the text: The SAD/MAD study was a phase 1, double-blind, placebo-controlled, multicohort trial. Part 1 used a SAD design according to which subjects received a single i.v. dose of SPR741. Part 2 used a MAD design in which subjects received multiple daily i.v. doses of SPR741 over a period of 14 days. The objective was to assess the safety/tolerability and PK of single and multiple ascending doses of SPR741. In the SAD phase, healthy volunteers were screened within 28 days prior to dosing. Subjects were admitted to the clinical facility on day −1 for up to 3 days. A single dose of SPR741 (or placebo) was administered on day 1. Following completion of all safety assessments and sampling for PK analyses, subjects were discharged on day 2. A follow-up visit occurred 5 to 7 days after day 1 dosing. In the MAD phase, all subjects were admitted to the clinical facility on day −1. Dosing commenced on the morning of day 1. Three doses were administered daily at approximately 8 (±0.5)-h intervals for a total of 14 consecutive days. The last dose was administered on the morning of day 14. Blood and urine samples were collected for assessment of PK parameters. Subjects were discharged on day 16 following completion of all PK sample collection and safety assessments, and a follow-up visit occurred 5 to 7 days after the last dose. In the SAD phase, subjects were randomized to one of eight cohorts that received doses of 5, 15, 50, 100, 200, 400, 600 or 800 mg of SPR741. Within each cohort, two subjects received placebo, and six received SPR741. In cohort 1, two subjects (sentinels) were dosed with SPR741 or placebo 48 h prior to dosing of the remaining subjects. The remaining six subjects were dosed only after no safety concerns were identified in the sentinel subjects. After each dose cohort had completed administration of study drug and evaluation, a Safety Monitoring Group reviewed blinded cumulative safety data (including day 5 to day 7 follow-up data) to confirm the safety and tolerability of SPR741.

Work on CC(=O)N[C@H](C(=O)N[C@H](CO)C(=O)N[C@H]1CCNC(=O)[C@H]([C@@H](C)O)NC(=O)[C@H](CCN)NC(=O)[C@H](CCN)NC(=O)[C@H](CC(C)C)NC(=O)[C@@H](Cc2ccccc2)NC(=O)[C@H](CCN)NC1=O)[C@@H](C)O [SPR741] (HELM PEPTIDE1{[ac].T.[dS].[Dab].[Dab].[dF].L.[Dab].[Dab].T}$PEPTIDE1,PEPTIDE1,4:R3-10:R2$$$V2.0) yielded a Tmax (clinical [1]) of 1 h, a clearance (clinical [1]; CL) of 89 mL/min and a half-life (clinical [1]; mean (apparent terminal elimination) half-life, day 1) of 2.2 h. For the same compound, the Tmax (clinical [2]; human) was 1 h, the AUC(0-inf) (clinical [2]; human, 5 mg) was 1010 ng·h/mL and the Cmax (clinical [2]; human, 5 mg) was 370 ng/mL. It also gave a Vd (clinical [2]; human, 5 mg) of 14.4 L, a clearance (clinical [2]; human, 5 mg) of 83.3 mL/min and a half-life (clinical [2]; human, 5 mg) of 2.02 h. It also gave an AUC(0-inf) (clinical [2]; human, 15 mg) of 3090 ng·h/mL, a Cmax (clinical [2]; human, 15 mg) of 924 ng/mL and a Vd (clinical [2]; human, 15 mg) of 19.7 L. For the same compound, the clearance (clinical [2]; human, 15 mg) was 84 mL/min, the half-life (clinical [2]; human, 15 mg) was 2.81 h and the AUC(0-inf) (clinical [2]; human, 50 mg) was 9740 ng·h/mL. The Cmax (clinical [2]; human, 50 mg) was 3250 ng/mL, the Vd (clinical [2]; human, 50 mg) was 18.4 L and the clearance (clinical [2]; human, 50 mg) was 86.3 mL/min. It also gave a half-life (clinical [2]; human, 50 mg) of 2.48 h, an AUC(0-inf) (clinical [2]; human, 100 mg) of 18200 ng·h/mL and a Cmax (clinical [2]; human, 100 mg) of 6010 ng/mL. For the same compound, the Vd (clinical [2]; human, 100 mg) was 20.6 L, the clearance (clinical [2]; human, 100 mg) was 92.5 mL/min and the half-life (clinical [2]; human, 100 mg) was 2.57 h. For the same compound, the AUC(0-inf) (clinical [2]; human, 200 mg) was 37300 ng·h/mL, the Cmax (clinical [2]; human, 200 mg) was 13400 ng/mL and the Vd (clinical [2]; human, 200 mg) was 20.3 L. For the same compound, the clearance (clinical [2]; human, 200 mg) was 91 mL/min, the half-life (clinical [2]; human, 200 mg) was 2.62 h and the AUC(0-inf) (clinical [2]; human, 400 mg) was 82200 ng·h/mL. It also gave a Cmax (clinical [2]; human, 400 mg) of 26000 ng/mL, a Vd (clinical [2]; human, 400 mg) of 24.5 L and a clearance (clinical [2]; human, 400 mg) of 81.5 mL/min. For the same compound, the half-life (clinical [2]; human, 400 mg) was 3.47 h, the AUC(0-inf) (clinical [2]; human, 600 mg) was 133000 ng·h/mL and the Cmax (clinical [2]; human, 600 mg) was 38000 ng/mL. For the same compound, the Vd (clinical [2]; human, 600 mg) was 24.6 L, the clearance (clinical [2]; human, 600 mg) was 77 mL/min and the half-life (clinical [2]; human, 600 mg) was 3.76 h. The AUC(0-inf) (clinical [2]; human, 800 mg) was 190000 ng·h/mL, the Cmax (clinical [2]; human, 800 mg) was 52600 ng/mL and the Vd (clinical [2]; human, 800 mg) was 21.2 L. For the same compound, the clearance (clinical [2]; human, 800 mg) was 70.8 mL/min, the half-life (clinical [2]; human, 800 mg) was 3.46 h and the “time of peak mean plasma concentration” value (clinical [2]) was “approximately 1 h”.
